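Where inhibition never reached the appropriate level, the endpoint shown equals the highest concentration tested. Otherwise, values were interpolated linearly from a five-concentration, 48-hour dose response in 96-well plates. At the GI50, growth is halved. TGI marks complete inhibition of growth.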
How the values were obtained:
Assay in all cases: DTP human tumour cell line panel, 48 h
OVCAR-8 ovarian = tested on: OVCAR-8 ovarian
SNB-75 CNS = tested on: SNB-75 CNS
SF-539 CNS = tested on: SF-539 CNS
HCT-116 colon = tested on: HCT-116 colon
RPMI-8226 leukemia = tested on: RPMI-8226 leukemia
SK-MEL-5 melanoma = tested on: SK-MEL-5 melanoma
NCI-H522 lung = tested on: NCI-H522 lung
SR leukemia = tested on: SR leukemia
RXF 393 renal = tested on: RXF 393 renal
HS 578T breast = tested on: HS 578T breast

Row | SMILES | TGI (OVCAR-8 ovarian) | TGI (SNB-75 CNS) | TGI (SF-539 CNS) | TGI (HCT-116 colon) | TGI (RPMI-8226 leukemia) | TGI (SK-MEL-5 melanoma) | TGI (NCI-H522 lung) | TGI (SR leukemia) | TGI (RXF 393 renal) | GI50 (OVCAR-8 ovarian) | GI50 (SNB-75 CNS) | GI50 (SF-539 CNS) | GI50 (HCT-116 colon) | GI50 (HS 578T breast) | TGI (HS 578T breast) | GI50 (SK-MEL-5 melanoma) | GI50 (NCI-H522 lung) | GI50 (RXF 393 renal) | GI50 (RPMI-8226 leukemia) | GI50 (SR leukemia)
1 | Cc1ccccc1C1=[N+]([O-])c2ccccc2C1=O | 30.3 µM | 47 µM | 33.7 µM | 32.4 µM | > 100 µM | 30.9 µM | 29 µM | > 100 µM | 37.3 µM |  |  |  |  |  |  |  |  |  |  | 
2 | CCOc1ccc(NC(=O)C2=C(C)NC(C)=C(C(=O)Nc3ccc(OCC)cc3)C2c2ccc(O)c(OC)c2)cc1 | > 100 µM | 59.2 µM | 83.6 µM |  | > 100 µM | > 100 µM | > 100 µM |  | > 100 µM |  |  |  |  |  |  |  |  |  |  | 
3 | Nc1nc(NCCO)c(N=O)c(=O)[nH]1 | > 100 µM | > 100 µM | > 100 µM | > 100 µM | > 100 µM | > 100 µM | > 100 µM |  | > 100 µM |  |  |  |  |  |  |  |  |  |  | 
4 | COc1cc2c3c(n(CCCN(CCN)CCCn4c5c(c6cc(OC)c(OC)cc6c4=O)C(=O)c4cc6c(cc4-5)OCO6)c(=O)c2cc1OC)-c1cc2c(cc1C3=O)OCO2 | > 42.2 µM | > 100 µM | 0.731 µM | 3.25 µM |  | 3.34 µM | 3.88 µM |  | 12.7 µM | 1.53 µM | 2.54 µM | 0.238 µM | 0.837 µM | 12.6 µM | > 100 µM | 1.04 µM | 0.343 µM | 3.39 µM |  | 
5 | Cc1ccccc1C1OC(=O)c2ccccc21 (configuration not stated) | > 100 µM | > 100 µM | > 100 µM | > 100 µM |  | > 100 µM | > 100 µM | > 100 µM | > 100 µM |  |  |  |  |  |  |  |  |  |  | 
6 | O=C(C=Nc1ccccc1C(=O)[O-])c1cccs1.O=C(C=Nc1ccccc1C(=O)[O-])c1cccs1.[Co+2] | > 100 µM |  | > 100 µM | > 100 µM |  |  | > 100 µM | > 100 µM |  |  |  |  |  |  |  |  |  |  |  | 
7 | COc1ccc(-n2cc(-c3cc(OC)c(OC)c(OC)c3)nc2SCc2ccccc2)cc1 |  | 66.8 µM | > 100 µM | > 100 µM | > 100 µM | 56.7 µM | > 100 µM | > 100 µM |  |  | 7.04 µM | > 100 µM | 17.5 µM | > 100 µM | > 100 µM | 8.54 µM | 31.5 µM |  | 5.5 µM | 54 µM
8 | CCCOC(=O)C1CCC(=O)N1C(=O)C(C)Cl (configuration not stated) | > 100 µM | > 100 µM |  | > 100 µM | > 100 µM | > 100 µM | > 100 µM |  |  |  |  |  |  |  |  |  |  |  |  | 
9 | c1ccc2c(c1)sc1c3cnccc3ccc21 |  | > 100 µM | > 100 µM | > 100 µM | > 100 µM | > 100 µM | > 100 µM | > 100 µM |  |  |  |  |  |  | > 100 µM |  |  |  |  | 
10 | CCOC(=O)c1c(-c2ccccc2)oc(-c2ccccc2)c1C(=O)OCC | > 100 µM | > 100 µM | > 100 µM | > 100 µM | > 100 µM | > 100 µM | > 100 µM | > 100 µM | > 100 µM |  |  |  |  |  |  |  |  |  |  | 
11 | CC(=O)N1c2ccccc2C2=CC3C4C(=O)N(c5ccccc5)C(=O)C4C21C1C(=O)N(c2ccccc2)C(=O)C31 (configuration not stated) | > 100 µM | > 100 µM | 6.66 µM | > 100 µM |  |  |  | > 100 µM |  |  |  |  |  |  |  |  |  |  |  | 

From PubChem BioAssay (NCI)
